Measurements reported in ChEMBL document CHEMBL1156829 (Proc Natl Acad Sci U S A, 2008).

Tests used:
[1] = test system: Plasmodium falciparum; assay: NOVARTIS: Inhibition of Plasmodium falciparum 3D7 (drug-susceptible) proliferation in erythrocyte-based infection assay; type: functional, organism-based; details: Plasmodium falciparum, 3D7
[2] = NOVARTIS: Cytotoxicity against human hepatocellular carcinoma cell line (Huh7); type: toxicity, cell-based, Huh-7; details: Huh7 cells (hepatocellular carcinoma cell line)
[3] = test system: Plasmodium falciparum; assay: NOVARTIS: Inhibition of Plasmodium falciparum W2 (drug-resistant) proliferation in erythrocyte-based infection assay; type: functional, organism-based; details: Plasmodium falciparum, W2; read-out: EC50

SMILES	EC50 [1] [nM]	CC50 [2] [nM]	EC50 [3] [nM]
C=CCOc1ccc(C2C(C(=O)OCC)=C(C)N=c3sc(=Cc4ccccc4O)c(=O)n32)cc1OCC (centres undefined)	608	53300	263
CCCCCCc1ccc(/C(C=[N+](C)C)=C\N(C)C)cc1	335	> 10000	260
O=C(Cn1ccc(=NCc2ccccc2)cc1)c1ccc(Cl)cc1	296	12800	602
COc1ccc(NC(=O)c2c(Cl)nc(Cl)c([N+](=O)[O-])c2C)cc1	> 1250	> 10000	2060
CC(C)OC(=O)CSc1nnc(CNc2nc(-c3ccccc3)cs2)n1C	1390	> 100000	1380
O=C(Nc1ccccc1Cl)c1cc2ccccc2cc1O	327	> 100000	298
N=c1c2c(n(Cc3ccccc3)c3c1CCC3)CCCC2	426	> 10000	738
C=C[C@H]1CN2CC[C@H]1C[C@H]2[C@H](O)c1ccnc2ccc(OC)cc12 [QUININE]	993	> 6250	1320
OCCN1CCN(c2cc(-c3cccnc3)nc(-c3ccncc3)n2)CC1	945	> 10000	626
N=c1n(CCN2CCCCC2)c2ccccc2n1CC(O)c1ccc(Cl)c(Cl)c1 (centres undefined)	52.8	12800	224
CCN(CC)CCCC(C)Nc1cc(C=Cc2ccc([N+](=O)[O-])cc2)nc2cc(OC)ccc12 (centres undefined)	31.6	20200	32.3
COc1ccc2c(c1)[nH]c1c(N3CCN(C(c4ccccc4)c4ccccc4)CC3)ncnc12	339	16300	435
Nc1ccc(-c2cc(N)n(-c3ccc(Oc4ccccc4)c(S(=O)(=O)O)c3)n2)cc1	> 921	> 10000	> 1250
N#CC(C#N)C(/C(Sc1ccc([N+](=O)[O-])cc1)=C(/O)c1ccccc1)c1cccs1 (centres undefined)	> 403	> 10000	> 1250
Cc1ccn2c(NC(C)(C)CC(C)(C)C)c(-c3ccccc3OC(=O)c3ccc4ccccc4c3)nc2c1	729	> 10000	152
COc1ccc(CCN2C(=S)NC3c4cccc(OC)c4OC2(C)C3C(=O)Nc2ccc(C)cc2C)cc1OC (centres undefined)	320	> 100000	68.7
O=C1c2ccc(-c3nc(-c4ccccc4)[nH]c3-c3ccccc3)cc2-c2cc(-c3[nH]c(-c4ccccc4)nc3-c3ccccc3)ccc21	9190	> 100000	8930

SMILES	EC50 [1] [nM]	CC50 [2] [nM]	EC50 [3] [nM]
COc1cc2nc(NCc3ccccc3)n3nc(-c4cccnc4)nc3c2cc1OC	> 12500	> 100000	810
CCOC(=O)c1ccc(N(C(=O)Cc2c[nH]c3ccccc23)C(C(=O)NC2CCCCC2)c2cccc(OC)c2OC)cc1 (centres undefined)	54.2	> 100000	104
COc1ccc2cc(C)c3nnc(SCC(=O)N4CCN(C(=O)c5ccco5)CC4)n3c2c1	1130	> 100000	796
NC(=O)c1ccc(-n2nnnc2SCc2ccc(Cl)cc2)cc1	2830	> 100000	> 12500
CCOc1cccc(Nc2cc(C)nc3ncnn23)c1	679	> 100000	729
O=C1c2ccccc2-n2c1nc1ccccc1c2=O [TRYPTANTHRIN]	212	> 10000	276
COc1ccc(CN(C=O)/C=C2\Sc3ccccc3C2=O)cc1OC	> 1250	> 10000	617
CCc1ccc(C(=O)N(CC(=O)Nc2cc(C(C)(C)C)nn2-c2ccc(Cl)c(Cl)c2)C(C)C)cc1	1730	87800	3860
CN(C)c1ccc(Nc2nc(NCC3CCCO3)c3ccccc3n2)cc1 (centres undefined)	852	11400	805
CN(C)CCCNc1c2ccccc2nc2ccccc12	32.7	8450	387
CC(C)(C)c1ccc(CNC(=O)C(Cc2ccc(O)cc2)c2ccccc2)cc1 (centres undefined)	> 8680	53200	3270
O=C(Cn1ccc(=NCc2ccccc2)cc1)c1ccc(I)cc1	308	20800	448
O=[N+]([O-])c1ccc2nc(Nc3ccc(Cl)c(Cl)c3)c(Nc3ccc(Cl)c(Cl)c3)nc2c1	7230	> 85400	7040
Cc1ccc(S(=O)(=O)Oc2ccc(C=NN=C(N)N)cc2)cc1	155	14100	631
COc1cc(NC(C)CCCN(Cc2ccccc2OC)C(=O)c2ccc(Cl)c([N+](=O)[O-])c2)c2ncccc2c1 (centres undefined)	1200	> 3910	< 18.2
CCN1CCN(c2cc(C)c3cc(NC(=O)/C=C/c4cc(OC)ccc4OC)ccc3n2)CC1	397	> 10000	> 1250
